Consider 52 molecules from patent US11472808B2, “Substituted pyrrolo[1,2-c]pyrimidines as hepatitis B antiviral agents” (Enanta Pharmaceuticals, Inc., priority 2019, dated 2022).

Each structure is given as a SMILES string.

A word on the EC50: it is the concentration giving half of the maximal effect.

The test system of the experiment is HBV. In words: HepAD38 anti-HBV assay: reduction of viral product accumulation (virion DNA qPCR, HBsAg/HBeAg ELISA). In kind it is cell-based. The note with it: Hepatitis B virus, 120 h; HepAD38 cells; concentration reducing viral product accumulation by 50% relative to no drug controls; harvest five days after compound addition; read-out: HepAD38 EC50. How it is done:
Methods: HepAD38 cells are maintained as previously reported (Ladner et al, Antimicrob. Agents Chemother. 1997, […], 1715). Briefly, cells are passaged upon attaining confluency in DMEM/F12 media in the presence of 10% FBS, Penn/Strep, 250 μg/mL G418, and 1 μg/ml tetracycline. Novel compounds are screened by first washing cells three times with PBS to remove tetracycline, and plating in 96 well plates at 35,000 cells/well. Compounds dissolved in DMSO are then diluted 1:200 into wells containing cells. Five days after compound addition, material is harvested for analysis. For an extended 8 day analysis, cells are plated and treated as described above, but media and compound are refreshed on d2 and d5 post initial treatment.
On harvest day, virion DNA is obtained by lysing with Sidestep Lysis and Stabilization Buffer and then quantified via quantitative real time PCR. Commercially available ELISA kits are used to quantitate the viral proteins HBsAg (Alpco) or HbeAg (US Biological) by following the manufacturer's recommended protocol after diluting samples to match the linear range of their respective assays. Irrespective of readout, compound concentrations that reduce viral product accumulation in the cell lysates or supernatants by 50% relative to no drug controls (EC50) are reported; EC50 ranges are as follows: A<0.1 μM; B 0.1-0.4 μM; C>0.4 μM.
Regarding `CONC[C@]1(O)CC2=C(c3ccn(C(F)F)n3)[C@H](c3ccc(F)cc3Cl)N=C(c3nccs3)N2C1` [Example 127], the concentration giving a half-maximal response (EC50) is over 400 nM.

On to `C=CCN(C[C@@]1(O)CC2=C(c3ccn(C(F)F)n3)[C@H](c3ccc(F)cc3Cl)N=C(c3nccs3)N2C1)S(C)(=O)=O` [Example 128], for which the EC50 is over 400 nM.

With `C=CCN(C[C@]1(O)CC2=C(c3ccn(C(F)F)n3)[C@H](c3ccc(F)cc3Cl)N=C(c3nccs3)N2C1)S(C)(=O)=O` [Example 129], the EC50 is over 400 nM.

`COC(=O)c1cccc(S(=O)(=O)NC[C@]2(O)CC3=C(c4ccn(C(F)F)n4)[C@H](c4ccc(F)cc4Cl)N=C(c4nccs4)N3C2)c1` [Example 130]: the EC50 lay within 100 to 400 nM.

In the case of `COC(=O)c1cccc(S(=O)(=O)NC[C@@]2(O)CC3=C(c4ccn(C(F)F)n4)[C@H](c4ccc(F)cc4Cl)N=C(c4nccs4)N3C2)c1` [Example 131], the concentration for a half-maximal effect (EC50) lay within 100 to 400 nM.

For the molecule `O=C(O)c1cccc(S(=O)(=O)NC[C@]2(O)CC3=C(c4ccn(C(F)F)n4)[C@H](c4ccc(F)cc4Cl)N=C(c4nccs4)N3C2)c1` [Example 132], the EC50 was over 400 nM.

`O=C(O)c1cccc(S(=O)(=O)NC[C@@]2(O)CC3=C(c4ccn(C(F)F)n4)[C@H](c4ccc(F)cc4Cl)N=C(c4nccs4)N3C2)c1` [Example 133]: the EC50 was over 400 nM.

In the case of `CS(=O)(=O)[C@H]1CC2=C(c3ccn(C(F)F)n3)[C@H](c3ccc(F)cc3Cl)N=C(c3nccs3)N2C1` [Example 134], the EC50 lay in the range of 100 to 400 nM.

`N#CCCCS(=O)(=O)N([C@H]1CC2=C(c3ccn(C(F)F)n3)[C@H](c3ccc(F)cc3Cl)N=C(c3nccs3)N2C1)S(=O)(=O)CCCC#N` [Example 136]: the EC50 lay in the range of 100 to 400 nM.

For the molecule `O=S(=O)(CCCc1nnn[nH]1)N[C@H]1CC2=C(c3ccn(C(F)F)n3)[C@H](c3ccc(F)cc3Cl)N=C(c3nccs3)N2C1` [Example 137], the 50% effective concentration (EC50) was over 400 nM.

Take `O[C@]1(CN2CCOCC2)CC2=C(c3ccn(C(F)F)n3)[C@H](c3ccc(F)cc3Cl)N=C(c3nccs3)N2C1` [Example 138]: the EC50 is over 400 nM.

For `O[C@@]1(CN2CCOCC2)CC2=C(c3ccn(C(F)F)n3)[C@H](c3ccc(F)cc3Cl)N=C(c3nccs3)N2C1` [Example 139], the EC50 is 100 to 400 nM.

On to `OC1(Cc2nnn[nH]2)CC2=C(c3ccn(C(F)F)n3)[C@H](c3ccc(F)cc3Cl)N=C(c3nccs3)N2C1` (stereo partly shown) [Example 141], for which the EC50 is over 400 nM.

In the case of `CSC[C@@]1(O)CC2=C(c3ccn(C(F)F)n3)[C@H](c3ccc(F)cc3Cl)N=C(c3nccs3)N2C1` [Example 142], the EC50 is over 400 nM.

For `CSC[C@]1(O)CC2=C(c3ccn(C(F)F)n3)[C@H](c3ccc(F)cc3Cl)N=C(c3nccs3)N2C1` [Example 143], the EC50 was 100 to 400 nM.

For `CS(=O)(=O)C[C@@]1(O)CC2=C(c3ccn(C(F)F)n3)[C@H](c3ccc(F)cc3Cl)N=C(c3nccs3)N2C1` [Example 144], the EC50 was 100 to 400 nM.

Regarding `CS(=O)(=O)C[C@]1(O)CC2=C(c3ccn(C(F)F)n3)[C@H](c3ccc(F)cc3Cl)N=C(c3nccs3)N2C1` [Example 145], the EC50 was over 400 nM.

As for `CS(=O)(=O)NC[C@]1(N)CC2=C(c3ccn(C(F)F)n3)[C@H](c3ccc(F)cc3Cl)N=C(c3nccs3)N2C1` [Example 146], the EC50 is over 400 nM.

Take `C=CCNC[C@]1(N)CC2=C(c3ccn(C(F)F)n3)[C@H](c3ccc(F)cc3Cl)N=C(c3nccs3)N2C1` [Example 147]: the EC50 was over 400 nM.

Turning to `CS(=O)(=O)NC[C@@]1(N)CC2=C(c3ccn(C(F)F)n3)[C@H](c3ccc(F)cc3Cl)N=C(c3nccs3)N2C1` [Example 148], the half-maximal effective concentration (EC50) was over 400 nM.

As to `C=CCNC[C@@]1(N)CC2=C(c3ccn(C(F)F)n3)[C@H](c3ccc(F)cc3Cl)N=C(c3nccs3)N2C1` [Example 149], the EC50 is over 400 nM.

Regarding `COC(=O)N1CCN(S(=O)(=O)N[C@H]2CC3=C(c4ccn(C(F)F)n4)[C@H](c4ccc(F)cc4Cl)N=C(c4nccs4)N3C2)CC1` [Example 152], the EC50 was under 100 nM.

Regarding `O=S(=O)(NCC1(O)CC1)N[C@H]1CC2=C(c3ccn(C(F)F)n3)[C@H](c3ccc(F)cc3Cl)N=C(c3nccs3)N2C1` [Example 158], the EC50 fell in the range of 100 to 400 nM.

For the molecule `C[C@@H](NS(=O)(=O)N[C@H]1CC2=C(c3ccn(C(F)F)n3)[C@H](c3ccc(F)cc3Cl)N=C(c3nccs3)N2C1)c1ccccn1` [Example 159], the EC50 is over 400 nM.

For the molecule `C[C@H](NS(=O)(=O)N[C@H]1CC2=C(c3ccn(C(F)F)n3)[C@H](c3ccc(F)cc3Cl)N=C(c3nccs3)N2C1)c1ccccn1` [Example 160], the EC50 was under 100 nM.

On to `O=C1NC2(CCN(S(=O)(=O)N[C@H]3CC4=C(c5ccn(C(F)F)n5)[C@H](c5ccc(F)cc5Cl)N=C(c5nccs5)N4C3)CC2)CO1` [Example 162], for which the EC50 is under 100 nM.

With `O=C1NCC2(CCN(S(=O)(=O)N[C@H]3CC4=C(c5ccn(C(F)F)n5)[C@H](c5ccc(F)cc5Cl)N=C(c5nccs5)N4C3)CC2)O1` [Example 163], the EC50 was under 100 nM.

Turning to `CC(C)(C)[Si](C)(C)OCC1(F)CC2=C(c3ccn(C(F)F)n3)[C@H](c3ccc(F)cc3Cl)N=C(c3nccs3)N2C1` (stereo partly shown) [Example 164], the half-maximal effective concentration (EC50) is over 400 nM.

`OC[C@]1(F)CC2=C(c3ccn(C(F)F)n3)[C@H](c3ccc(F)cc3Cl)N=C(c3nccs3)N2C1` [Example 165]: the EC50 is 100 to 400 nM.

On to `OC[C@@]1(F)CC2=C(c3ccn(C(F)F)n3)[C@H](c3ccc(F)cc3Cl)N=C(c3nccs3)N2C1` [Example 166], for which the EC50 was 100 to 400 nM.

`OCC[C@]1(F)CC2=C(c3ccn(C(F)F)n3)[C@H](c3ccc(F)cc3Cl)N=C(c3nccs3)N2C1` [Example 167]: the half-maximal effective concentration (EC50) was over 400 nM.

As for `OCC[C@@]1(F)CC2=C(c3ccn(C(F)F)n3)[C@H](c3ccc(F)cc3Cl)N=C(c3nccs3)N2C1` [Example 168], the EC50 is under 100 nM.

Regarding `OCC(O)[C@]1(F)CC2=C(c3ccn(C(F)F)n3)[C@H](c3ccc(F)cc3Cl)N=C(c3nccs3)N2C1` (stereo partly shown) [Example 169], the 50% effective concentration (EC50) fell in the range of 100 to 400 nM.

For `OCC(O)[C@@]1(F)CC2=C(c3ccn(C(F)F)n3)[C@H](c3ccc(F)cc3Cl)N=C(c3nccs3)N2C1` (stereo partly shown) [Example 170], the EC50 was 100 to 400 nM.

Take `C=CC1(F)CC2=C(c3ccn(C(F)F)n3)[C@H](c3ccc(F)cc3Cl)N=C(c3nccs3)N2C1` (stereo partly shown) [Example 171]: the concentration giving a half-maximal response (EC50) was 100 to 400 nM.

Turning to `CCOC(=O)/C=C/[C@]1(F)CC2=C(c3ccn(C(F)F)n3)[C@H](c3ccc(F)cc3Cl)N=C(c3nccs3)N2C1` [Example 172], the concentration for a half-maximal effect (EC50) was 100 to 400 nM.

In the case of `CCOC(=O)/C=C/[C@@]1(F)CC2=C(c3ccn(C(F)F)n3)[C@H](c3ccc(F)cc3Cl)N=C(c3nccs3)N2C1` [Example 173], the EC50 is under 100 nM.

For the molecule `OC/C=C/[C@]1(F)CC2=C(c3ccn(C(F)F)n3)[C@H](c3ccc(F)cc3Cl)N=C(c3nccs3)N2C1` [Example 174], the EC50 fell in the range of 100 to 400 nM.

Turning to `OC/C=C/[C@@]1(F)CC2=C(c3ccn(C(F)F)c3)[C@H](c3ccc(F)cc3Cl)N=C(c3nccs3)N2C1` [Example 175], the EC50 lay in the range of 100 to 400 nM.

As for `CC(O)[C@]1(F)CC2=C(c3ccn(C(F)F)n3)[C@H](c3ccc(F)cc3Cl)N=C(c3nccs3)N2C1` (stereo partly shown) [Example 176], the EC50 was under 100 nM.

As for `CNC(=O)OCC1(F)CC2=C(c3ccn(C(F)F)n3)[C@H](c3ccc(F)cc3Cl)N=C(c3nccs3)N2C1` (stereo partly shown) [Example 178], the concentration giving a half-maximal response (EC50) is under 100 nM.

Take `O/N=C/[C@]1(F)CC2=C(c3ccn(C(F)F)n3)[C@H](c3ccc(F)cc3Cl)N=C(c3nccs3)N2C1` [Example 179]: the EC50 was over 400 nM.

`O/N=C/[C@@]1(F)CC2=C(c3ccn(C(F)F)n3)[C@H](c3ccc(F)cc3Cl)N=C(c3nccs3)N2C1` [Example 180]: the EC50 was over 400 nM.

Regarding `C=CC(O)C1(F)CC2=C(c3ccn(C(F)F)n3)[C@H](c3ccc(F)cc3Cl)N=C(c3nccs3)N2C1` (stereo partly shown) [Example 181], the EC50 was in the range of 100 to 400 nM.

Take `COC(=O)OC[C@]1(F)CC2=C(c3ccn(C(F)F)n3)[C@H](c3ccc(F)cc3Cl)N=C(c3nccs3)N2C1` [Example 182]: the EC50 is 100 to 400 nM.

On to `COC(=O)OC[C@@]1(F)CC2=C(c3ccn(C(F)F)n3)[C@H](c3ccc(F)cc3Cl)N=C(c3nccs3)N2C1` [Example 183], for which the EC50 was 100 to 400 nM.

`OC(c1c[nH]nn1)C1(F)CC2=C(c3ccn(C(F)F)n3)[C@H](c3ccc(F)cc3Cl)N=C(c3nccs3)N2C1` (stereo partly shown) [Example 184]: the concentration for a half-maximal effect (EC50) is over 400 nM.

For `COC(=O)NC[C@]1(F)CC2=C(c3ccn(C(F)F)n3)[C@H](c3ccc(F)cc3Cl)N=C(c3nccs3)N2C1` [Example 185], the half-maximal effective concentration (EC50) lay within 100 to 400 nM.

For the molecule `COC(=O)NC[C@@]1(F)CC2=C(c3ccn(C(F)F)n3)[C@H](c3ccc(F)cc3Cl)N=C(c3nccs3)N2C1` [Example 186], the EC50 was 100 to 400 nM.

Regarding `O=C(NC[C@@]1(F)CC2=C(c3ccn(C(F)F)n3)[C@H](c3ccc(F)cc3Cl)N=C(c3nccs3)N2C1)OCc1ccccc1` [Example 187], the EC50 was over 400 nM.

With `COC(=O)c1ccccc1S(=O)(=O)NC[C@@]1(F)CC2=C(c3ccn(C(F)F)n3)[C@H](c3ccc(F)cc3Cl)N=C(c3nccs3)N2C1` [Example 188], the 50% effective concentration (EC50) was over 400 nM.

As for `COC(=O)c1ccccc1S(=O)(=O)NC[C@]1(F)CC2=C(c3ccn(C(F)F)n3)[C@H](c3ccc(F)cc3Cl)N=C(c3nccs3)N2C1` [Example 189], the EC50 is over 400 nM.
